Results on eleven compounds are retold here after USRE38332E1, “Selected soluble esters of hydroxyl-containing indolocarbazoles” (Cephalon, Inc., priority 1995, dated 2003).

Data set [1] deals with ChAT activity in spinal cord cultures. Put plainly: Effect of indolocarbazole esters on ChAT activity in dissociated spinal cord cultures. The class given is cell-based, rat. The protocol:
The effect of indolocarbazole esters of the invention on ChAT activity was assayed in dissociated spinal cord cultures prepared from fetal rats. ChAT is the enzyme that catalyzes the synthesis of the neurotransmitter acetylcholine, and it is a specific biochemical marker for cholinergic neurons. In the spinal cord, the large majority of cholinergic neurons are motor neurons. Assay of this enzyme may thus be used as an indication of the effects of a factor (or factors) on the survival and/or differentiation of cholinergic neurons and/or regulation of this enzyme. The procedure used for the assay is that described in Example 6 of WO 94/02488. Fourteen esters were tested in the spinal cord ChAT assay to determine their relative efficacy, and the results are summarized in Table 4.

The nature of data set [2]: In vitro metabolism of I-5 esters in human plasma. Format: in vitro ADME. Particulars: 5000 ng/mL, 37° C. On the procedure: (§1) Freshly-collected plasma from male Sprague-Dawley rats and presumably-healthy drug-free male humans was pooled and immediately frozen. The plasma was kept frozen at −90° C. and each aliquot was thawed only once for use in incubations. Stock solutions of the indolocarbazole esters were prepared in DMSO and were used to prepare standard curves in plasma that had been boiled to two minutes. Boiled plasma was divided into 500 μL aliquots, mixed with an aliquot of the internal standard, and spiked with the respective stock indolocarbazole ester solutions to prepare the standard curve. Thawed plasma was divided into 500 μL aliquots, placed in screw-cap vials, mixed with internal standard, and spiked with stock solutions of the respective indolocarbazole esters to yield a nominal concentration of 5000 ng/mL.
(§2) Incubations were then performed at 37° C. in a shaking water bath for 0, 0.5, 1, 2, 5, 10, 15, 30, and 60 minutes and quenched by addition of 5 mL methylene chloride. All tubes (standards and experimentals) were extracted for 15 minutes by shaking, and centrifuged. The methylene chloride layer was removed, dried under a stream of nitrogen, and reconstituted in DMSO. Fifty μL of the reconstituted extracts were analyzed by reverse-phase HPLC with detection at 290 nm. The mobile phase and gradient conditions are given below: […]

A short description of data set [3]: Solubility of the esters at 1 mg/ml in water and buffer solutions. Particulars: for solubility in Tris buffer: 10 mM Tris buffer pH 9; for solubility in acetate buffer: 10 mM acetate buffer pH 4; for solubility in phosphate buffer: 10 mM phosphate buffer pH 7; for solubility in water: water (Solution 1).
Method: Indolocarbazole esters were dissolved in water, dimethylsulfoxide (DMSO) and the following buffer solutions to determine solubility and to observe conversion to indolocarbazole I-5. Samples were analyzed by HPLC using UV detection at 290 nm.
Solution 2 was a 10 mM acetate buffer at pH 4 which was prepared by weighing 0.68 g of sodium acetate 3H2O into 500 ml of water and adjusting the pH with acetic acid.
Solution 3 was a 10 mM phosphate buffer, pH 7, which was prepared by weighing 0.30 g of monobasic sodium phosphate and 0.36 g of dibasic sodium phosphate into 500 ml of water, stirring until completely dissolved, and adjusting the pH with hydrochloric acid.
Solution 4 was a 10 mM Tris buffer, pH 9, which was prepared by weighing 0.79 g of Tris (tris(hydroxymethyl)aminomethane hydrochloride) into 500 ml of water, stirring until completely dissolved, and adjusting the pH with sodium hydroxide.
Sample solutions were prepared by weighing 0.5-1 mg of the indolocarbazole ester into an amber 1.5 ml autosampler vial, to which the appropriate quantity of one of the buffer solutions was added, in order to achieve a final concentration of 1 mg/ml. The sample solutions were vortexed and sonicated for 10 minutes. Fifty μl aliquots were placed into 1.5 ml amber autosampler vials. The reaction was quenched at a selected time interval by addition of 450 μl DMSO to the vial.
Data set [4] is described as follows: In vitro metabolism of I-5 esters in rat plasma. Format: in vitro ADME. To be noted: 5000 ng/mL, 37° C. On the procedure: as §1, §2

On to `COC1(COC(=O)C(N)CCCCN)CC2OC1(C)n1c3ccccc3c3c4c(c5c6ccccc6n2c5c31)C(=O)NC4.Cl.Cl` (stereo not shown) [Example 1, (I-5)-Lysinate Dihydrochloride], for which, in data set [1], the “Spinal Cord ChAT Activity (% of Control) 500 nM” value is recorded as 150 % of Control and the “Spinal Cord ChAT Activity (% of Control) 1000 nM” value is 153 % of Control. Also, the “hydrolysis, conversion to indolocarbazole I-5” value (“hydrolysis, conversion” below) in data set [2] was “hydrolyzed rapidly”. In data set [3], the “solubility in Tris buffer” value is recorded as “completely soluble”, the “solubility in acetate buffer” value is “completely soluble”, the “solubility in phosphate buffer” value is listed as “completely soluble” and the solubility in water entry was “completely soluble”.

As for `COC1(COC(=O)CN)CC2OC1(C)n1c3ccccc3c3c4c(c5c6ccccc6n2c5c31)C(=O)NC4.Cl` (stereo not shown) [Example 2, (I-5)-Glycinate Hydrochloride], in data set [1], the “Spinal Cord ChAT Activity (% of Control) 500 nM” value was 157 % of Control and the “Spinal Cord ChAT Activity (% of Control) 1000 nM” value is 151 % of Control. The “maximum rates of hydrolysis” value in data set [4] is “more extensively hydrolyzed”.

Consider `COC1(COC(=O)C(C)N)CC2OC1(C)n1c3ccccc3c3c4c(c5c6ccccc6n2c5c31)C(=O)NC4.Cl` (stereo not shown) [Example 3, (I-5)-Alaninate Hydrochloride], for which, in data set [1], the “Spinal Cord ChAT Activity (% of Control) 500 nM” value is 151 % of Control and the “Spinal Cord ChAT Activity (% of Control) 1000 nM” value is on record as 132 % of Control. In addition, the “maximum rates of hydrolysis” value in data set [4] is listed as “more extensively hydrolyzed”. Moreover, the “hydrolysis, conversion” value in data set [2] is “not detectable”. In data set [3], the “solubility in Tris buffer” value is given as “not completely soluble”, the “solubility in acetate buffer” value is given as “completely soluble”, the “solubility in phosphate buffer” value is “not completely soluble” and the solubility in water result is “completely soluble”.

Consider `COC1(COC(=O)CCC(=O)O)CC2OC1(C)n1c3ccccc3c3c4c(c5c6ccccc6n2c5c31)C(=O)NC4` (stereo not shown) [Example 4, (I-5)-Hydrogen Succinate], for which, in data set [1], the “Spinal Cord ChAT Activity (% of Control) 500 nM” value is 150 % of Control and the “Spinal Cord ChAT Activity (% of Control) 1000 nM” value is listed as 154 % of Control. Besides, in data set [3], the “solubility in Tris buffer” value was “not completely soluble”, the “solubility in acetate buffer” value is on record as “not completely soluble”, the “solubility in phosphate buffer” value was “not completely soluble” and the solubility in water entry is on record as “not completely soluble”.

For `COC1(COC(=O)c2cccnc2)CC2OC1(C)n1c3ccccc3c3c4c(c5c6ccccc6n2c5c31)C(=O)NC4.Cl` (stereo not shown) [Example 5, (I-5)-Pyridine-3-carboxylate Hydrochloride], in data set [1], the “Spinal Cord ChAT Activity (% of Control) 500 nM” value is recorded as 137 % of Control and the “Spinal Cord ChAT Activity (% of Control) 1000 nM” value was 139 % of Control. In addition, the “increase of ChAT activity over control” value in data set [1] (10 μM) is given as “*This compound increases ChAT activity 169% over control at 10 μM”. For the same compound, in data set [3], the “solubility in Tris buffer” value is “not completely soluble”, the “solubility in acetate buffer” value was “not completely soluble”, the “solubility in phosphate buffer” value was “not completely soluble” and the solubility in water result is “not completely soluble”.

On to `COC1(COC(=O)c2ccc[n+](C)c2)CC2OC1(C)n1c3ccccc3c3c4c(c5c6ccccc6n2c5c31)C(=O)NC4.[I-]` (stereo not shown) [Example 6, (I-5)-Pyridine-3-carboxylate Methiodide], for which, in data set [1], the “Spinal Cord ChAT Activity (% of Control) 500 nM” value is 149 % of Control and the “Spinal Cord ChAT Activity (% of Control) 1000 nM” value is reported as 150 % of Control. Besides, in data set [3], the “solubility in Tris buffer” value was “not completely soluble”, the “solubility in acetate buffer” value is reported as “not completely soluble”, the “solubility in phosphate buffer” value is “not completely soluble” and the solubility in water result is “not completely soluble”.

As to `COC1(COC(=O)CN(C)C)CC2OC1(C)n1c3ccccc3c3c4c(c5c6ccccc6n2c5c31)C(=O)NC4.Cl` (stereo not shown) [Example 7, (I-5)-N,N-Dimethylglycinate Hydrochloride], in data set [1], the “Spinal Cord ChAT Activity (% of Control) 500 nM” value is given as 132 % of Control and the “Spinal Cord ChAT Activity (% of Control) 1000 nM” value is 151 % of Control. In addition, in data set [3], the “solubility in Tris buffer” value is recorded as “not completely soluble”, the “solubility in acetate buffer” value is “completely soluble”, the “solubility in phosphate buffer” value was “not completely soluble” and the solubility in water entry is given as “completely soluble”.

As for `COC1(COC(=O)C(N)Cc2cnc[nH]2)CC2OC1(C)n1c3ccccc3c3c4c(c5c6ccccc6n2c5c31)C(=O)NC4.Cl.Cl` (stereo not shown) [Example 9, (I-5) Histidinate Dihydrochloride], in data set [1], the “Spinal Cord ChAT Activity (% of Control) 500 nM” value is given as 158 % of Control and the “Spinal Cord ChAT Activity (% of Control) 1000 nM” value is recorded as 143 % of Control. In addition, in data set [3], the “solubility in Tris buffer” value is “not completely soluble”, the “solubility in acetate buffer” value is listed as “completely soluble”, the “solubility in phosphate buffer” value is “not completely soluble” and the solubility in water result is “completely soluble”.

Turning to `COC1(COC(=O)C(N)CCCNC(=N)N)CC2OC1(C)n1c3ccccc3c3c4c(c5c6ccccc6n2c5c31)C(=O)NC4.Cl.Cl` (stereo not shown) [Example 10, (I-5)-Argininate Dihydrochloride], in data set [1], the “Spinal Cord ChAT Activity (% of Control) 500 nM” value is 128 % of Control and the “Spinal Cord ChAT Activity (% of Control) 1000 nM” value is 170 % of Control. Moreover, the “hydrolysis of the ester linkage, liberation of indolocarbazole I-5” value in data set [4] is listed as “complete prior to the first sampling period”. Further, in data set [2], the “hydrolysis, conversion” value is “hydrolyzed rapidly”.

`COC1(COC(=O)C(C)(C)N)CC2OC1(C)n1c3ccccc3c3c4c(c5c6ccccc6n2c5c31)C(=O)NC4.Cl` (stereo not drawn) [Example 12, (I-5)-α-Aminoisobutyrate Hydrochloride]: in data set [1], the “Spinal Cord ChAT Activity (% of Control) 500 nM” value is 155 % of Control and the “Spinal Cord ChAT Activity (% of Control) 1000 nM” value is 150 % of Control. Besides, in data set [3], the “solubility in Tris buffer” value is reported as “not completely soluble”, the “solubility in acetate buffer” value is “completely soluble”, the “solubility in phosphate buffer” value is “not completely soluble” and the solubility in water entry was “completely soluble”.

In the case of `COC1(COC(=O)C(N)CCC(=O)O)CC2OC1(C)n1c3ccccc3c3c4c(c5c6ccccc6n2c5c31)C(=O)NC4.Cl` (stereo not shown) [Example 13, (I-5)-Glutamate Hydrochloride], in data set [1], the “Spinal Cord ChAT Activity (% of Control) 500 nM” value is 168 % of Control and the “Spinal Cord ChAT Activity (% of Control) 1000 nM” value is reported as 142 % of Control.
